In patent US20090149458A1, “PYRROLO[3,2-d]PYRIMIDINE COMPOUNDS AND THEIR USE AS PI3 KINASE AND mTOR KINASE INHIBITORS” (Wyeth, priority 2007, published 2009):

Columns and labels:
Format in all cases: biochemical
PI3 Kinase γ = PI3 Kinase γ (Homo sapiens, UniProt P48736); assay: PI3K fluorescence polarization assay (PI3 Kinase γ); settings: 20 uM PIP2, 25 uM ATP
Procedure: Buffers: Reaction Buffer: 20 mM HEPES pH7.5, 2 mM MgCl2, 0.05% CHAPS, and 0.01% bME (added fresh); STOP/detection Buffer: 100 mM HEPES pH7.5, 4 mM EDTA, 0.05% CHAPS. STOCKS: ATP 20 mM in H2O; PIP2 (diC8, Echelon cat# P-4508) 1 mM in H2O MW=856.5; GST-murine GRP 1.5 mg/ml in 17% glycerol; Red detector probe-Echelon (TAMRA) 2.5 uM. Plate: Nunc 384 well black polypropylene fluor. Plate.
Assay: The assay is run by putting 9.5 ul of freshly diluted enzyme (in “reaction buffer”) per well, then 0.5 ul of diluted drug or DMSO mixing. Then 10 ul of substrate is added to start the reaction. The mixture is incubated 30-60 minutes, room temp, then stopped with 20 ul of stop/detector mix. The substrate solution, is 40 μM PIP2 and 50 uM ATP in reaction buffer. Addition of 10 ul of substrate to each well starts the reaction. This is 20 uM PIP2, 25 uM ATP final in reaction.
Stop/detector mix: 10 nM TAMRA detector, 40 nM GST-GRP in STOP/detection buffer. To stop reaction: add 20 ul Stop/detector mix per well and mix well. Wait 90-110 minutes before reading plate. Plates are read on Perkin-Elmer Envision plate readers with filters for Tamra. Keep Red probe solutions dark. This procedure is adapted from Echelon Biosciences Inc procedure for their PI3-Kinase fluorescence polarization activity Assay kit Product number K-1100.

PI3 Kinase α = PI3 Kinase α (Homo sapiens, UniProt P42336); assay: PI3K fluorescence polarization assay (PI3 Kinase α); settings: 20 uM PIP2, 25 uM ATP;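 also: enzyme reaction with inhibitor or DMSO control, 30–60 min at room temperature, stopped by EDTA, then TAMRA detector with GST-GRP fluorescence polarization read after 90–110 min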
human TOR = target: T1, human TOR (Homo sapiens, UniProt P42345); assay: human TOR kinase assay with purified enzyme, DELFIA format; settings: FLAG-TOR, 100 μM ATP, His6-S6K substrate;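 also: 2 h kinase reaction at room temperature, phosphorylation of S6K at T389 detected with a europium-labelled antibody after plate capture, DMSO vehicle as control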
T1 construct: FLAG

Sequence of PI3 Kinase γ (P48736 whole entry): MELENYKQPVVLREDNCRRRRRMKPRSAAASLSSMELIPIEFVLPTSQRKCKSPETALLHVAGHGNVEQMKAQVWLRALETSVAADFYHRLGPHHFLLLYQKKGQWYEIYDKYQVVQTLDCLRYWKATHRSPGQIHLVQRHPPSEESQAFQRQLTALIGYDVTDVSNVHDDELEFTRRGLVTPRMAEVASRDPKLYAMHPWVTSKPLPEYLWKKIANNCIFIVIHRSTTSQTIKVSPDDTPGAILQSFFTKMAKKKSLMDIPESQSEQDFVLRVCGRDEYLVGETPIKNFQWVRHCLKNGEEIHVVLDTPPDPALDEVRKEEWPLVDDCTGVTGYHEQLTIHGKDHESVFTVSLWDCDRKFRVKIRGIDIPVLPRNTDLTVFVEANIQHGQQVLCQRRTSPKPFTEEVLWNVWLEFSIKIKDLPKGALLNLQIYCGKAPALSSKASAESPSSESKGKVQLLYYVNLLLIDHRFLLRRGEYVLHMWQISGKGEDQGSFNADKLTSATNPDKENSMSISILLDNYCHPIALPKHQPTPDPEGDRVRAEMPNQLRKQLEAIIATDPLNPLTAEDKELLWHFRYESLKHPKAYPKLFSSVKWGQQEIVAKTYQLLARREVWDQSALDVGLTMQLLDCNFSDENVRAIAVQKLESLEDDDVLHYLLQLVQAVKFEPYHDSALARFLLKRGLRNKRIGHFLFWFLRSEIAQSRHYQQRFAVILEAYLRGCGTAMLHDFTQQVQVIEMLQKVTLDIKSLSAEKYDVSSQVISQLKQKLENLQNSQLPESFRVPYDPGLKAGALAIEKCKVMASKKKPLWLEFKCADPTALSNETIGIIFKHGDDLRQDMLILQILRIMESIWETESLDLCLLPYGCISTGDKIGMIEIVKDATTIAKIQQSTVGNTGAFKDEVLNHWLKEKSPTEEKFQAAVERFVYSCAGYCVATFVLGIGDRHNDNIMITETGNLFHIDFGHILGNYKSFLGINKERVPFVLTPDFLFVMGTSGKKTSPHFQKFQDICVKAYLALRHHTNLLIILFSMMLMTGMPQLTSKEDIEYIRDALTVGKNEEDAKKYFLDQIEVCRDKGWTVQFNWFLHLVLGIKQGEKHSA
Sequence of PI3 Kinase α (P42336 whole entry): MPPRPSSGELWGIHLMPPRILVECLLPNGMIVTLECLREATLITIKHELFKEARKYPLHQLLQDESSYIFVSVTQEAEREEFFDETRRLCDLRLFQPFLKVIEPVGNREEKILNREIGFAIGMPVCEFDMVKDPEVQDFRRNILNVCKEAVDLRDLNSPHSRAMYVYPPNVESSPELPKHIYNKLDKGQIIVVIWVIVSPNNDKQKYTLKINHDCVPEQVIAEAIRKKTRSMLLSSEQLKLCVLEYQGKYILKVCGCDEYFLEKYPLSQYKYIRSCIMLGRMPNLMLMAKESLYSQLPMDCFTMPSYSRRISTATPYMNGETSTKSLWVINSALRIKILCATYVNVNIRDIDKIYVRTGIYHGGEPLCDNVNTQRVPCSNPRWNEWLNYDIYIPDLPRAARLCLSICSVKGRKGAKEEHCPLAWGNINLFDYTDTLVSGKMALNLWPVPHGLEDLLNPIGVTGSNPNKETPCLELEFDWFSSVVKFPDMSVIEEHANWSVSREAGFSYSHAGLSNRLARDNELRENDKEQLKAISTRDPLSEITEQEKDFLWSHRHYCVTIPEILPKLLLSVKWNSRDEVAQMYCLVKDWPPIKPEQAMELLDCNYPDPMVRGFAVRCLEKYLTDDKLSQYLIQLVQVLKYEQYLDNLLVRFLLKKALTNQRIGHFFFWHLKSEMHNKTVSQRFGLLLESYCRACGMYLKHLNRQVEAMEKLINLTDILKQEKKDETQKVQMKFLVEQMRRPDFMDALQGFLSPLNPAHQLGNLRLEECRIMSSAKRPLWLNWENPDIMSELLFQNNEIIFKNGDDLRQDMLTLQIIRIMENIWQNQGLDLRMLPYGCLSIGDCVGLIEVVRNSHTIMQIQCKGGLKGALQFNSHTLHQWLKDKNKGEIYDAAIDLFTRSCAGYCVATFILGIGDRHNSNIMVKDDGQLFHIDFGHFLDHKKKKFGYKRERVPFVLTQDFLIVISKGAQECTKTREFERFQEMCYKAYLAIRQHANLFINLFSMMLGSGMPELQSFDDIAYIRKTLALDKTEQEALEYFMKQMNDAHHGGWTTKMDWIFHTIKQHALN
Sequence of PI3 Kinase α (P27986 whole entry partner): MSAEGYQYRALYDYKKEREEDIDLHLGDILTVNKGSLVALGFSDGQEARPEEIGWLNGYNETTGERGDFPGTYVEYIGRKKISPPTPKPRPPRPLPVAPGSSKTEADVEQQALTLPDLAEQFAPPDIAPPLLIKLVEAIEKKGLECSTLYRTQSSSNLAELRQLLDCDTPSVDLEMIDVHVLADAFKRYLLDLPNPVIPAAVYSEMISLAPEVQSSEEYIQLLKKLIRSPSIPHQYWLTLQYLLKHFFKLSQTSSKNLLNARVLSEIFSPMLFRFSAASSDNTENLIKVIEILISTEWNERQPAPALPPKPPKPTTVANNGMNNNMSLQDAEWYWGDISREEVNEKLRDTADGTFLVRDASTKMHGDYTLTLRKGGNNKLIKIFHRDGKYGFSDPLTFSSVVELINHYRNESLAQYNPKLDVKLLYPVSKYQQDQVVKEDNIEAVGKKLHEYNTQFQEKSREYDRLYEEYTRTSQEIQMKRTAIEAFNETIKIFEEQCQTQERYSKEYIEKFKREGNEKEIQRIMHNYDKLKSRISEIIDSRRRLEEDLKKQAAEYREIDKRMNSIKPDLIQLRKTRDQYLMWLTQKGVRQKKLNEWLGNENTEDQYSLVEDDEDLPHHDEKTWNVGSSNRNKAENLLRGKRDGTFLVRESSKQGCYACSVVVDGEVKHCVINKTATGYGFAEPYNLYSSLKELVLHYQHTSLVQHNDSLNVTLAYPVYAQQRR

| IC50 (PI3 Kinase γ) | IC50 (PI3 Kinase α) | IC50 (human TOR) | SMILES |
| --- | --- | --- | --- |
| 818 nM | 28 nM | 260 nM | CCN(CC)Cc1c[nH]c2c(N3CCOCC3)nc(-c3cccc(CO)c3)nc12 [Example 13] |
| 3030 nM | 180 nM | > 4000 nM | Oc1cccc(-c2nc(N3CCOCC3)c3[nH]cc(CNCc4cccnc4)c3n2)c1 [Example 16, 3-(4-morpholin-4-yl-7-{[(pyridin-3-ylmethyl)amino]methyl}-5H-pyrrolo[3,2-d]pyrimidin-2-yl)phenol] |
| 510 nM | 30 nM | 4300 nM | OCc1cccc(-c2nc(N3CCOCC3)c3[nH]cc(CN4CCNCC4)c3n2)c1 [Example 11, {3-[4-morpholin-4-yl-7-(piperazin-1-ylmethyl)-5H-pyrrolo[3,2-d]pyrimidin-2-yl]phenyl}methanol] |
| 1070 nM | – | – | Oc1cccc(-c2nc(N3CCOCC3)c3[nH]cc(C4CCNCC4)c3n2)c1 [Example 22, 3-(4-morpholin-4-yl-7-piperidin-4-yl-5H-pyrrolo[3,2-d]pyrimidin-2-yl)phenol] |
| 443 nM | 950 nM | > 4000 nM | c1ccc(COc2cccc(-c3nc(N4CCOCC4)c4[nH]ccc4n3)c2)cc1 [Example 1, 2-[3-(benzyloxy)phenyl]-4-morpholin-4-yl-5H-pyrrolo[3,2-d]pyrimidine] |
| 8000 nM | – | 430 nM | Nc1cccc(-c2nc(N3CCOCC3)c3[nH]ccc3n2)c1 [Example 5, 3-(4-morpholin-4-yl-5H-pyrrolo[3,2-d]pyrimidin-2-yl)aniline] |
| 4280 nM | 72 nM | 11100 nM | OCc1cccc(-c2nc(N3CCOCC3)c3[nH]cc(CNCCN4CCCCC4)c3n2)c1 [Example 8, [3-(4-morpholin-4-yl-7-{[(2-piperidin-1-ylethyl)amino]methyl}-5H-pyrrolo[3,2-d]pyrimidin-2-yl)phenyl]methanol] |
| 1150 nM | 74 nM | 3300 nM | CN(C)Cc1c[nH]c2c(N3CCOCC3)nc(-c3cccc(O)c3)nc12 [Example 18, 3-{7-[(dimethylamino)methyl]-4-morpholin-4-yl-5H-pyrrolo[3,2-d]pyrimidin-2-yl}phenol] |
| 6700 nM | 424 nM | 2000 nM | Oc1cccc(-c2nc(N3CCOCC3)c3[nH]cc(CN4CCN(c5ncccn5)CC4)c3n2)c1 [Example 20, 3-{4-morpholin-4-yl-7-[(4-pyrimidin-2-ylpiperazin-1-yl)methyl]-5H-pyrrolo[3,2-d]pyrimidin-2-yl}phenol] |
| > 10000 nM | > 10000 nM | > 4000 nM | O=C(NCc1cccnc1)Nc1cccc(-c2nc(N3CCOCC3)c3[nH]ccc3n2)c1 [Example 44, 1-[3-(4-morpholin-4-yl-5H-pyrrolo[3,2-d]pyrimidin-2-yl)phenyl]-3-(pyridin-3-ylmethyl)urea] |
| 890 nM | – | – | Oc1cccc(-c2nc(N3CCOCC3)c3[nH]cc(C4CCN(Cc5ccccc5)CC4)c3n2)c1 [Example 26, 3-[7-(1-benzylpiperidin-4-yl)-4-morpholin-4-yl-5H-pyrrolo[3,2-d]pyrimidin-2-yl]phenol] |
| > 10000 nM | > 10000 nM | > 4000 nM | O=C(NCc1ccco1)Nc1cccc(-c2nc(N3CCOCC3)c3[nH]ccc3n2)c1 [Example 43, 1-(2-furylmethyl)-3-[3-(4-morpholin-4-yl-5H-pyrrolo[3,2-d]pyrimidin-2-yl)phenyl]urea] |
| 1730 nM | 222 nM | 580 nM | CC(C)(C)OC(=O)NCCN1CCC(c2c[nH]c3c(N4CCOCC4)nc(-c4cccc(O)c4)nc23)CC1 [Example 36, tert-Butyl (2-{4-[2-(3-hydroxyphenyl)-4-morpholin-4-yl-5H-pyrrolo[3,2-d]pyrimidin-7-yl]piperidin-1-yl}ethyl)carbamate] |
| – | – | 735 nM | Oc1cccc(-c2nc(N3CCOCC3)c3[nH]cc(C4CCN(Cc5ccc(Cl)nc5)CC4)c3n2)c1 [Example 35, 3-(7-{1-[(6-chloropyridin-3-yl)methyl]piperidin-4-yl}-4-morpholin-4-yl-5H-pyrrolo[3,2-d]pyrimidin-2-yl)phenol] |
| 8110 nM | – | > 4000 nM | Cn1ccc2nc(-c3cccc(CO)c3)nc(N3CCOCC3)c21 [Example 45, [3-(5-methyl-4-morpholin-4-yl-5H-pyrrolo[3,2-d]pyrimidin-2-yl)phenyl]methanol] |
| 611 nM | 140 nM | 605 nM | Oc1cccc(-c2nc(N3CCOCC3)c3[nH]cc(C4CCN(Cc5ccccn5)CC4)c3n2)c1 [Example 38, 3-{4-morpholin-4-yl-7-[1-(pyridin-2-ylmethyl)piperidin-4-yl]-5H-pyrrolo[3,2-d]pyrimidin-2-yl}phenol] |

| IC50 (PI3 Kinase γ) | IC50 (PI3 Kinase α) | IC50 (human TOR) | SMILES |
| --- | --- | --- | --- |
| 1370 nM | 120 nM | 460 nM | Oc1cccc(-c2nc(N3CCOCC3)c3[nH]cc(C4CCN(Cc5ccc(F)cc5Cl)CC4)c3n2)c1 [Example 34, 3-{7-[1-(2-chloro-4-fluorobenzyl)piperidin-4-yl]-4-morpholin-4-yl-5H-pyrrolo[3,2-d]pyrimidin-2-yl}phenol] |
| 4980 nM | 2670 nM | 220 nM | CNC(=O)Nc1ccc(-c2nc(N3CCOCC3)c3[nH]ccc3n2)cc1 [Example 6, 1-methyl-3-[4-(4-morpholin-4-yl-5H-pyrrolo[3,2-d]pyrimidin-2-yl)phenyl]urea] |
| 983 nM | 358 nM | 2500 nM | Oc1cccc(-c2nc(N3CCOCC3)c3[nH]cc(C4CCN(Cc5ncc[nH]5)CC4)c3n2)c1 [Example 28, 3-{7-[1-(1H-imidazol-2-ylmethyl)piperidin-4-yl]-4-morpholin-4-yl-5H-pyrrolo[3,2-d]pyrimidin-2-yl}phenol] |
| 132 nM | 69 nM | 1260 nM | Oc1cccc(-c2nc(N3CCOCC3)c3[nH]cc(C4CCN(Cc5ccc(F)nc5)CC4)c3n2)c1 [Example 39, 3-(7-{1-[(6-fluoropyridin-3-yl)methyl]piperidin-4-yl}-4-morpholin-4-yl-5H-pyrrolo[3,2-d]pyrimidin-2-yl)phenol] |
| 2000 nM | 1180 nM | 505 nM | O=C1COCCN1c1nc(-c2cccc(O)c2)nc2cc[nH]c12 [Example 48, 4-[2-(3-hydroxyphenyl)-5H-pyrrolo[3,2-d]pyrimidin-4-yl]morpholin-3-one] |
| 1900 nM | 498 nM | 3150 nM | CC(C)CN1CCC(c2c[nH]c3c(N4CCOCC4)nc(-c4cccc(O)c4)nc23)CC1 [Example 29, 3-[7-(1-isobutylpiperidin-4-yl)-4-morpholin-4-yl-5H-pyrrolo[3,2-d]pyrimidin-2-yl]phenol] |
| 1610 nM | 297 nM | 2750 nM | Oc1cccc(-c2nc(N3CCOCC3)c3[nH]cc(C4CCN(Cc5ccco5)CC4)c3n2)c1 [Example 27, 3-{7-[1-(2-furylmethyl)piperidin-4-yl]-4-morpholin-4-yl-5H-pyrrolo[3,2-d]pyrimidin-2-yl}phenol] |
| 2020 nM | 62 nM | 7850 nM | CN1CCN(Cc2c[nH]c3c(N4CCOCC4)nc(-c4cccc(CO)c4)nc23)CC1 [Example 10] |
| 561 nM | – | – | CN(C)Cc1c[nH]c2c(N3CCOCC3)nc(-c3cccc(CO)c3)nc12 [Example 12] |
| 1120 nM | – | – | OCc1cccc(-c2nc(N3CCOCC3)c3[nH]cc(CN4CCCC4)c3n2)c1 [Example 7, {3-[4-morpholin-4-yl-7-(pyrrolidin-1-ylmethyl)-5H-pyrrolo[3,2-d]pyrimidin-2-yl]phenyl}methanol] |
| 918 nM | – | – | OCc1cccc(-c2nc(N3CCOCC3)c3[nH]ccc3n2)c1 [Example 3, [3-(4-morpholin-4-yl-5H-pyrrolo[3,2-d]pyrimidin-2-yl)phenyl]methanol] |
| 164 nM | – | – | Oc1cccc(-c2nc(N3CCOCC3)c3[nH]ccc3n2)c1 [Example 2, 3-(4-morpholin-4-yl-5H-pyrrolo[3,2-d]pyrimidin-2-yl)phenol] |
| > 8700 nM | – | 5000 nM | Cc1cccc(-c2nc(N3CCOCC3)c3[nH]ccc3n2)c1 [Example 4, 2-(3-methylphenyl)-4-morpholin-4-yl-5H-pyrrolo[3,2-d]pyrimidine] |
| 1070 nM | – | – | Oc1cccc(-c2nc(N3CCOCC3)c3[nH]cc(C4CCN(Cc5ccc(F)cc5)CC4)c3n2)c1 [Example 23, 3-{7-[1-(4-fluorobenzyl)piperidin-4-yl]-4-morpholin-4-yl-5H-pyrrolo[3,2-d]pyrimidin-2-yl}phenol] |
| > 10000 nM | – | > 4000 nM | Cn1cc(CN2CCCC2)c2nc(-c3cccc(CO)c3)nc(N3CCOCC3)c21 [Example 47, {3-[5-methyl-4-morpholin-4-yl-7-(pyrrolidin-1-ylmethyl)-5H-pyrrolo[3,2-d]pyrimidin-2-yl]phenyl}methanol] |

| SMILES | IC50 (PI3 Kinase γ) | IC50 (PI3 Kinase α) | IC50 (human TOR) |
| --- | --- | --- | --- |
| OCc1cccc(-c2nc(N3CCOCC3)c3[nH]cc(C4=CCNCC4)c3n2)c1 [Example 24, {3-[4-morpholin-4-yl-7-(1,2,3,6-tetrahydropyridin-4-yl)-5H-pyrrolo[3,2-d]pyrimidin-2-yl]phenyl}methanol] | 1200 nM | 410 nM | 3400 nM |
